Data on 4 molecules can be found in PMC7615676, “Short-course combination treatment for experimental chronic Chagas disease” (Science translational medicine, 2023).

One data set deals with Vero host cells. The data set is described as follows: cytotoxicity against host cells in intracellular amastigote assay. It is filed as cell-based. The note with it: Chlorocebus sabaeus, Vero, host cell cytotoxicity.
Data set [1] deals with T. cruzi epimastigotes bearing mutations in cytochrome b. As to the kind of experiment: epimastigote drug sensitivity assay, cytochrome b mutant / resistant lines. Conditions: for EC50: Trypanosoma cruzi; for fold change from WT, L197I: compound 3-resistant line (L197I); for fold change from WT, F222L: compound 5-resistant line (F222L). It is filed as cell-based, Trypanosoma cruzi. As to the method:
T. cruzi epimastigotes from the Silvio strain (MHOM/BR/78/Silvio; clone X10/7A) were grown at 28°C in RTH/FBS medium ([80]).
T. cruzi epimastigote assays carried out as described previously ([43]).
Compound-resistant cell lines were generated by subculturing clones of wild-type T. cruzi epimastigotes in the continuous presence of compound 3 or compound 5. Starting at sublethal concentrations, drug concentrations in 3 independent cultures were increased in a stepwise manner, usually by 2-fold. When parasites were able to survive and grow in compound concentrations equivalent to >30-fold their established EC50 value, they were cloned by limiting dilution in the presence of compound. Three independent clones were selected from each compound for further study.

A further data set in a line: FaSSIF solubility assay. It is filed as physicochemical. The note with it: pH 6.5, 4 h. As to the method:
Solubility of test compounds in fasted simulated intestinal fluid (FaSSIF) was determined at pH 6.5 after 4 h equilibration at rt. An amount of1 mL of FaSSIF buffer (3 mM sodium taurocholate, 0.75 mM lecithin in sodium phosphate buffer at pH 6.5) was added to manually weighed 1 mg of solid compound in a 2 mL HPLC autosampler vial. The resulting suspension was shaken at 900 rpm for 4 h at rt and then transferred to a Multiscreen HTS, 96-well solubility filter plate. The residual solid was removed by filtration. The supernatant solution was quantified by HPLC−UV using single-point calibration of a known concentration of the compound in DMSO. The dynamic range of the assay was 1−1000 μg/mL.

For data set [2], the system named is intracellular T. cruzi Silvio X10/7 A1 in Vero cells. The data set is described as follows: washout outgrowth assay. Type of data set: cell-based, Trypanosoma cruzi. Conditions: for relapse day after the end of treatment: 50× EC50 for five days. As to the method:
Washout outgrowth assay: Vero cells were infected overnight in T600 flasks at a multiplicity of infection (MOI) 5 with T. cruzi Silvio X10/7 A1 trypomastigotes, followed by washing of the Vero monolayer to remove free trypomastigotes. 24 hours later the monolayer was trypsinised, 5.3 x 10^6 Vero cells were plated in T75 tissue culture flasks (in 20 ml MEM-Glutamax (ThermoFisher), 1% Fetal Calf Serum (FCS)), and treatment was started. For ten-day treatments, medium with compounds was replaced after the initial 5 days. For 16 day treatments the compounds were replaced every four days. For compound washout, all medium was aspirated, and flasks were washed three times with 10 ml serum-free MEM medium followed by a final aspiration and addition of 20 ml MEM-Glutamax (ThermoFisher) supplemented with 1% FCS. The cultures were then maintained until trypomastigotes were detected by light microscopy. Medium was replaced twice weekly and prior to each medium replacement microscopic evaluation was carried out (five fields per flask) for up to 60 days post washout. Robustness of the data was confirmed by profiling multiple compounds from the pyrrolopyrimidine series in a single experiment (compounds 2,3 and 4 in Fig. 2 and Fig. S17) as well as comparing results from independent experiments (compound 2 in Fig. 2, Fig. S5 and Fig. S7).

In data set [3] the target is T. cruzi complex III (epimastigote lysates) (Trypanosoma cruzi, UniProt Q9T479). As to the kind of experiment: T. cruzi complex III assay. It is filed as biochemical. Conditions: decylubiquinol substrate. As to the method:
Complex III activity within these lysates was monitored in the presence and absence of compound 3, compound 5 and related analogues from this series, using decylubiquinol as a pseudo-substrate ([43]).
Measurement of complex III activity and inhibition were performed as described previously ([43]).

For the next data set, the system named is HepG2 cells. As to the kind of experiment: general cytotoxicity assay in HepG2 cells. The note with it: Homo sapiens, HepG2, 48 h, CellTiter-Glo. Type of data set: cell-based. The method, then: This assay was previously described ([36]). Briefly, actively growing HepG2 cells were removed from a T-175 TC flask using 5 ml Eagle’s MEM (containing 10 % FBS, 1 % NEAA, 1 % penicillin/ streptomycin. Carbon source is D-glucose at 1 g/l) and dispersed in the medium by repeated pipetting. Seeding density was checked to ensure that new monolayers were not more than 50 % confluent at the time of harvesting. Cell suspension was added to 500 ml of the same medium at a final density of 1.2 x 10^5 cells/ml. This cell suspension was dispensed (25 μl, 3000 cells per well) into 384-well clear-bottom plates using a Multidrop Combi dispenser. Prior to addition of the cell suspension, the screening compounds (250 nl) were predispensed into the plates with an EchoH liquid handler. Plates were incubated for 48 h at 37°C, 5% CO2. After incubation, plates equilibrated at room temperature for 30 min before proceeding to develop the luminescent signal. The signal developer, CellTiter-Glo Reagent, was allowed to equilibrate at room temperature for 30 min and added to the plates ([…]) using a Multidrop Combi dispenser. Plates were left for 10 min at room temperature for stabilization and then read using a ViewLux.

[4] abbreviates: read-out: Vero pEC50 (converted).
The mark [5] stands for this setting: read-out: HepG2 pEC50 (converted).

Molecules are shown by their SMILES. Like-named read-outs stand apart in the source and are kept apart here.

Chain of T. cruzi complex III (epimastigote lysates) (Q9T479 entry or part of it, one chain of several): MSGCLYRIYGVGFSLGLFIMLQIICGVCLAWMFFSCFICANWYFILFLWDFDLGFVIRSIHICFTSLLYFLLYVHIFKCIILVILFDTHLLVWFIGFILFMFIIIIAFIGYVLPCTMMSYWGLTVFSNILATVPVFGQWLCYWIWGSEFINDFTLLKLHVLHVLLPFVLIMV

As for `COc1cc(F)ccc1-c1c(C)[nH]c2nc(N)nc(C)c12` [Compound 2, 5-(4-Fluoro-2-methoxyphenyl)-4,6-dimethyl-7H-pyrrolo[2,3-d]pyrimidin-2-amine], the EC50 in the data set on Vero host cells (read-out: Vero EC50) was over 50 µM; in the data set with Vero host cells (setting [4]) it was over 50.1 µM; in data set [1] (read-out: EC50 F222L), 3.62 ± 0.322 µM; in data set [1] (read-out: EC50 L197I), 0.117 ± 0.005 µM; with HepG2 cells (read-out: HepG2 EC50), 79 µM; with HepG2 cells (setting [5]) it was 63.1 µM. Moreover, the “fold change from WT, L197I” value in data set [1] amounted to 4 fold. In data set [1], the “fold change from WT, F222L” value is reported as 109 fold. The “FaSSIF pH 6.5” value in “FaSSIF solubility assay” is listed as 153 µg/mL. The “relapse day after the end of treatment” value in data set [2] amounted to 14 days. Moreover, in data set [3], the IC50 – broadly, the concentration needed to halve the response being measured – amounted to 0.008 ± 0.001 µM.

As for `O=C(Cn1ccnc1[N+](=O)[O-])NCc1ccccc1` [Benznidazole, reference compound], the EC50 was over 50 µM in the data set with Vero host cells (read-out: Vero EC50), over 50.1 µM in the data set on Vero host cells (setting [4]), over 100 µM in the data set on HepG2 cells (read-out: HepG2 EC50) and over 100 µM with HepG2 cells (setting [5]). Also, the “relapse day after the end of treatment” value in data set [2] is 14 days. For the same molecule, the “relapse day after compound washout” value in data set [2] (ten-day treatment) was “no relapse”.

As for `COc1ccc(-c2c(C)[nH]c3nc(N)nc(C)c23)c(OC)c1` [Compound 4, 5-(2,4-Dimethoxyphenyl)-4,6-dimethyl-7H-pyrrolo[2,3-d]pyrimidin-2-amine], the EC50 in the data set with Vero host cells (read-out: Vero EC50) is over 50 µM; with Vero host cells (setting [4]) it was over 50.1 µM; in data set [1] (read-out: EC50 F222L) it was 6.38 ± 0.436 µM; in data set [1] (read-out: EC50 L197I) it was 0.432 ± 0.015 µM; with HepG2 cells (read-out: HepG2 EC50), 79 µM; with HepG2 cells (setting [5]), 79.4 µM. Also, the “fold change from WT, L197I” value in data set [1] is 5 fold. Besides, in data set [1], the “fold change from WT, F222L” value was 73 fold. The “FaSSIF pH 6.5” value in the data set “FaSSIF solubility assay” turned out to be 107 µg/mL. The same molecule yielded an IC50 in data set [3] of 0.006 ± 0.001 µM.

As for `COc1cc(Cl)ccc1-c1c(C)[nH]c2nc(N)nc(C)c12` [Compound 3, 5-(4-Chloro-2-methoxyphenyl)-4,6-dimethyl-7H-pyrrolo[2,3-d]pyrimidin-2-amine], the EC50 in the data set on Vero host cells (read-out: Vero EC50) was over 50 µM; in the data set on Vero host cells (setting [4]), over 50.1 µM; in data set [1] (read-out: EC50 F222L) it was 1.12 ± 0.063 µM; in data set [1] (read-out: EC50 G36C/L197F cytb line), 0.003 ± 0.0001 µM; in data set [1] (read-out: EC50 G36C/L197I cytb line), 0.258 ± 0.007 µM; in data set [1] (read-out: EC50 L197F cytb line) it was 0.0037 ± 0.0001 µM. Besides, the EC50 in data set [1] (read-out: EC50 L197I) was 0.115 ± 0.007 µM; in data set [1] (read-out: EC50 compound 3-resistant clone RES1) it was 0.107 ± 0.0054 µM; in data set [1] (read-out: EC50 compound 3-resistant clone RES3), 0.166 ± 0.014 µM; in the data set on HepG2 cells (read-out: HepG2 EC50) it was 79 µM; with HepG2 cells (setting [5]) it was 79.4 µM. Further, in data set [1], the “fold change from WT, L197I” value is on record as 19 fold. Further, the “fold change from WT, F222L” value in data set [1] turned out to be 183 fold. In addition, the “cross-resistance of G36C and L197I epimastigotes” value in data set [1] (versus wild-type) turned out to be 23 fold. Besides, the “FaSSIF pH 6.5” value in “FaSSIF solubility assay” was determined as 76 µg/mL. Besides, the “relapse day after the end of treatment” value in data set [2] was 14 days. In data set [3], this molecule had an IC50 of 0.002 ± 0.0003 µM.
